The values that follow come from patent US11819511B2, “Composition of N-palmitoyl-ethanolamide and Rutin in co-micronized form” (EPITECH GROUP S.P.A, priority 2019, dated 2023).

For experiment [1] the following is noted: Trolox equivalent; cited from earlier work.
The test system of experiment [2] is thoracic aorta rings exposed to peroxynitrite. Nature of the experiment: Ex vivo vascular reactivity: endothelium-dependent release of thoracic aorta rings from acetylcholine, after complete ligation of the left carotid artery and 14 days of treatment. The class given is in vivo, C57Bl/6 strain mice. Conditions: aorta rings collected day 14, exposed to peroxynitrite 1 mM, per os once a day for 14 days. The protocol: (§1) (as described by Q.Xu “Mouse models of arteriosclerosis: from arterial injuries to vascular grafts” Am J Pathol. (2014); 165(1):1-10). […] Cuzzocrea et al “Superoxide: a key player in hypertension” FASEB J. […] In particular, the ex vivo measurement of vascular reactivity is carried out with the following procedures: Adult mice of the C57Bl/6 strain weighing 25-30 g are used (Envigo-Italy). The groups of animals on which the evaluations were carried out (10 animals per group) were the following: • Group 1—Animals treated per os with 10 mg/kg of co-micronized palmitoyl-ethanolamide: […] Rutin in a 1:1 ratio, suspended in 1% carboxymethylcellulose solution and with the addition of 0.5 mg/kg of pure hydroxytyrosol in the final solution. At the end of the treatments, the thoracic aortas of the animals are taken and adequately cleaned of the adherent peri-adventitious fat and 3-4 mm rings are cut out. The rings are placed in Krebs solution at pH 7.4 (Krebs solution composition: NaCl 118 mM; KCl 4.7 mM; KH2PO4 1.2 mM; CaCl2 2.5 mM; MgSO4 1.2 mM; NaHCO3 25 mM; glucose 11.7 mM). […] A voltage of 1 g is applied, and the Krebs solution is exchanged every 15 minutes. The aorta rings are exposed to a concentration of peroxynitrile 1 mM.

Experiment [3] shares this test system. Nature of the experiment: Ex vivo vascular reactivity: contraction of thoracic aorta rings from norepinephrine, after complete ligation of the left carotid artery and 14 days of treatment. In kind it is in vivo, C57Bl/6 strain mice. Conditions: aorta rings collected day 14, exposed to peroxynitrite 1 mM, per os once a day for 14 days. As for the experimental part: as §1

With `OCCc1ccc(O)c(O)c1` [hydroxytyrosol, 1-(2-hydroxy)ethyl-3,4-dihydroxybenzene], the “ORAC (Oxygen Radical Absorbance Capacity) index” value in experiment [1] is 40,000 μmolTE/g.

As to `C[C@@H]1O[C@@H](OC[C@H]2O[C@@H](Oc3c(-c4ccc(O)c(O)c4)oc4cc(O)cc(O)c4c3=O)[C@H](O)[C@@H](O)[C@@H]2O)[C@H](O)[C@H](O)[C@H]1O` [Group 3, Rutin], the “Vascular Tone-% of Pre-Contraction from Acetylcholine” value in experiment [2] (Acetylcholine 0.1 μM) is on record as 100%; in experiment [2] (Acetylcholine 1.0 μM), 96%; in experiment [2] (Acetylcholine 10.0 μM), 81%. Further, the “Contraction (g) from Norepinephrine” value in experiment [3] (Norepinephrine 100 nM) is 0.20 g; in experiment [3] (Norepinephrine 1,000 nM), 0.40 g; in experiment [3] (Norepinephrine 10,000 nM) it was 0.70 g.

For the compound `CCCCCCCCCCCCCCCC(=O)NCCO` [Group 2, palmitoyl-ethanolamide], the entries for the “Vascular Tone-% of Pre-Contraction from Acetylcholine” value in experiment [2] (Acetylcholine 0.1 μM), in experiment [2] (Acetylcholine 1.0 μM) and in experiment [2] (Acetylcholine 10.0 μM) were 99%, 94% and 85%, respectively. The “Contraction (g) from Norepinephrine” value in experiment [3] (Norepinephrine 100 nM) stood at 0.20 g; in experiment [3] (Norepinephrine 1,000 nM) it was 0.40 g; in experiment [3] (Norepinephrine 10,000 nM) it was 0.70 g.
